From patent US8143261B2, “Thiazolo (4,5-D) pyrimidine compounds” (AstraZeneca AB, priority 1999, dated 2012)

Compound: COCC(CO)Nc1nc(SCc2cccc(F)c2F)nc2[nH]c(=O)sc12.[Na] (racemic)
- melting point: > 250 °C

Compound: CC(COCCO)Nc1nc(SCc2cccc(F)c2F)nc2[nH]c(=O)sc12 (racemic) [Example 11, (+/−)-5-[[(2,3-difluorophenyl)methyl]thio]-7-[[2-(2-hydroxyethoxy)-1-methylethyl]amino]thiazolo[4,5-d]pyrimidin-2(3H)-one]
- melting point: 221 to 222 °C

Compound: CC(C)(CO)Nc1nc(SCc2ccccc2)nc2[nH]c(=O)sc12 [Example 1, 7-[(2-Hydroxy-1,1-dimethylethyl)amino]-5-[(phenylmethyl)thio]thiazolo[4,5-d]pyrimidin-2(3H)-one]
- melting point: 207 to 208 °C

Compound: O=c1[nH]c2nc(SCc3cccc(F)c3F)nc(NC(CO)CO)c2s1 [Example 7, 5-[[(2,3-difluorophenyl)methyl]thio]-7-[[2-hydroxy-1-(hydroxymethyl)ethyl]amino]thiazolo[4,5-d]pyrimidin-2(3H)-one]
- melting point: 178 to 179 °C

Compound: NCCNc1nc(SCc2cccc(F)c2F)nc2[nH]c(=O)sc12 [Example 8, 7-[(2-aminoethyl)amino]-5-[[(2,3-difluorophenyl)methyl]thio]thiazolo[4,5-d]pyrimidin-2(3H)-one]
- melting point: 215 to 216 °C

Compound: O=c1[nH]c2nc(SCc3cccc(F)c3F)nc(NCCO)c2s1 [Example 9, 5-[[(2,3-difluorophenyl)methyl]thio]-7-[(2-hydroxyethyl)amino]thiazolo[4,5-d]pyrimidin-2(3H)-one]
- melting point: 217 to 219 °C

Compound: CS(=O)(=O)NCCNc1nc(SCc2cccc(F)c2F)nc2[nH]c(=O)sc12 [Example 10, N-[2-[[5-[[(2,3-difluorophenyl)methyl]thio]-2,3-dihydro-2-oxothiazolo[4,5-d]pyrimidin-7-yl]amino]ethyl]methanesulfonamide]
- melting point: 225 to 226 °C

Compound: O=c1[nH]c2nc(SCc3cccc(F)c3F)nc(N[C@@H]3CNC[C@H]3O)c2s1 [Example 18, 5-[[(2,3-Difluorophenyl)methyl]thio]-7-[[(3R,4R)-4-hydroxypyrrolidin-3-yl]amino]-thiazolo[4,5-d]pyrimidin-2(3H)-one]
- melting point: 270 °C (dec.)

Compound: Cc1nc(CSc2nc(NC(CO)CO)c3sc(=O)[nH]c3n2)cs1 [Example 21, 7-[[2-Hydroxy-1-(hydroxymethyl)ethyl]amino]-5-[[(2-methyl-4-thiazolyl)methyl]thio]thiazolo[4,5-d]pyrimidin-2(3H)-one]
- melting point: 239 to 243 °C

Compound: Cc1nc(CSc2nc(NC(C)(C)CO)c3sc(=O)[nH]c3n2)cs1 [Example 22, 7-[(2-Hydroxy-1,1-dimethylethyl)amino]-5-[[(2-methyl-4-thiazolyl)methyl]thio]thiazolo[4,5-d]pyrimidin-2(3H)-one]
- melting point: 231 to 232 °C

Compound: C[C@H](CN)Nc1nc(SCc2cccc(Cl)c2F)nc2[nH]c(=O)sc12 [Example 25, 7-[[(1R)-2-Amino-1-methylethyl]amino]-5-[[(3-chloro-2-fluorophenyl)methyl]thio]thiazolo[4,5-d]pyrimidin-2(3H)-one]
- melting point: 241 to 243 °C

Compound: NC(=O)[C@H](CO)Nc1nc(SCc2cccc(F)c2F)nc2[nH]c(=O)sc12 [Example 26, (2S)-2-[[5-[[(2,3-Difluorophenyl)methyl]thio]-2,3-dihydro-2-oxothiazolo[4,5-d]pyrimidin-7-yl]amino]-3-hydroxy-propanamide]
- melting point: 145 to 151 °C
